Measured values: US20160199407A1, “HALIDES IN THE TREATMENT OF PATHOGENIC INFECTION” (THE UNIVERSITY OF IOWA RESEARCH FOUNDATION, priority 2008, published 2016)
“Also recorded” adds a separate entry of the source. Like-named read-outs stand apart in the source and are kept apart here.

Key:
[1] = system: influenza A (H1N1, A/PR/8/34); format: cell-based; settings: pH 6.5
H. influenzae = H. influenzae (NTHi) killing on airway epithelial cell cultures with LPO and I^− or SCN^−; format: cell-based
eukaryotic cells = settings: HOI: at bactericidal concentrations; cited from earlier work
A2 strain of RSV = test: Cell free exposure of RSV to Duox/LPO system components, then titering; settings: 5 min
primary airway epithelia = settings: cited from earlier work
M. haemolytica = M. haemolytica killing by AEC cultures; format: cell-based
S. aureus = S. aureus killing on airway epithelial cell cultures with LPO and I^− or SCN^−; format: cell-based
human AEC = test: HOI generation by AEC, fluorescein absorbance at 508 nm; format: cell-based; settings: apical ATP (100 μM), I^− (400 μM), LPO (9 μg/ml), fluorescein (16 μM), 3 hours
[2] = system: adenovirus expressing eGFP; test: In situ inactivation of adenovirus on AEC; settings: porcine airway epithelia, 50 MOI, ATP (100 μM), 6.5 mg/mL LPO, NaI, PBS pH 6.5
SARS-CoV (Urbani strain) = format: cell-based; settings: human airway epithelia, 5 MOI, ATP (100 μM), 6.5 mg/mL LPO, NaI, pH 6.5, 24 hr
adenovirus (serotype 5) = test: In vitro (cell free) inactivation of adenovirus expressing eGFP; settings: 5 min exposure, readout 24 hr later
[3] = I^− accumulation in airway surface fluid after oral KI intake

N#CSO [OSCN^−, hypothiocyanite, reference compound]
Influenza viral antigen (NS1) [1]: dose dependent decrease
Susceptibility of NTHi (H. influenzae; AEC cultures, data not shown): resistant
Bactericidal activity against H. influenzae (H. influenzae; airway epithelia, LPO): ineffective
Toxicity to eukaryotic cells (eukaryotic cells): not toxic
Virucidal effects on RSV (A2 strain of RSV; PBS): minimal virucidal effects

N#CS [SCN^−, thiocyanate, reference compound]
SCN− in place of I^− in the oxidative mechanism eliminating H. influenzae (H. influenzae; LPO, epithelial cells, 3 hrs, 500 μM SCN^− controls): cannot replace I^−
Rate of apical-to-basolateral leakage (primary airway epithelia; Moskwa, 2007): < 10 %/hour
Basolateral concentration above which primary airway epithelia secrete the anion (primary airway epithelia; published data): > 5 µM
Susceptibility of M. haemolytica to supported antibacterial activity (M. haemolytica): susceptible
Killing of M. haemolytica (M. haemolytica; 250 μM SCN^−, 3 hours): supported killing
SCN^− concentration necessary for killing of S. aureus (S. aureus; AEC cultures, data not shown): > 120 µM

I [I^−, iodide]
Bacterial survival (H. influenzae) (H. influenzae; 200 and 500 μM I−, LPO (7 μg/ml), epithelial cells, 1000 CFU, 3 hrs): No surviving bacteria
I^− concentration sufficient to support strong NTHi-killing activity of AEC (H. influenzae; LPO present, catalase absent, data not shown): ≤ 50 µM
I^− concentration at which numbers of surviving H. influenzae were lower (H. influenzae; LPO, airway epithelia, 3 hr): ≥ 10 µM
I^− concentration giving complete eradication of bacteria (H. influenzae) (H. influenzae; LPO, airway epithelia, 3 hr): 50 to 200 µM
Basolateral concentration above which primary airway epithelia secrete the anion (primary airway epithelia): higher than 1 μM
HOI production by AEC (human AEC): can support HOI production
Elimination of M. haemolytica in the presence of I^− as compared to SCN^− (M. haemolytica): more effective
Susceptibility of M. haemolytica to supported antibacterial activity (M. haemolytica): susceptible
Bacterial survival (M. haemolytica) (M. haemolytica; LPO and 250 μM I^−, 3 hours): No surviving bacteria
Bacterial survival (S. aureus) (S. aureus; 50 and 200 μM I^−, LPO (7 μg/ml), epithelial cells, 1000 CFU, 3 hrs): No surviving bacteria
I^− concentration supporting complete elimination of S. aureus (S. aureus; AEC cultures, data not shown): 50 µM
I^− concentration at which numbers of surviving S. aureus were lower (S. aureus; LPO, airway epithelia, 3 hr): ≥ 10 µM
I^− concentration giving complete eradication of bacteria (S. aureus) (S. aureus; LPO, airway epithelia, 3 hr): 50 to 200 µM

OI [HOI]
Influenza viral antigen (NS1) [1]: dose dependent decrease
Adenovirus inactivation on airway epithelia (GFP expression) [2]: sufficient H2O2 to support; also recorded: dose dependent decrease
Bactericidal activity against H. influenzae (H. influenzae; airway epithelia, LPO): strong bactericidal activity
SARS-CoV inactivation (N gene product immunoreactivity) (SARS-CoV (Urbani strain)): sufficient H2O2 to support; also recorded: marked reduction
Toxicity to eukaryotic cells (eukaryotic cells): not toxic
Solution pH at which antiviral effect against RSV was most marked (A2 strain of RSV): ≤ 6.5
Drop in RSV titer (A2 strain of RSV; PBS): 5 log
Adenovirus inactivation (eGFP expression in transduced A549 cells) (adenovirus (serotype 5)): inactivated; also recorded: dose-dependent decrease
Efficiency of HOI producing system against S. aureus versus OSCN^− producing mechanism (S. aureus; airway epithelia, LPO): more efficient

[I-].[K+] [KI, potassium iodide]
Airway surface fluid I^− concentration relative to serum I^− level ([3]; 8 hours after oral 130 mg KI): more than 50 fold
Sufficiency to achieve the airway surface fluid I^− level (10-50 μM) necessary for HOI-mediated elimination of bacteria and viruses ([3]; oral 130 mg KI): more than sufficient
Time the high airway surface fluid I^− concentration was maintained ([3]; oral 130 mg KI): several hours
I^− concentration in airway surface fluid ([3]; two hours after oral KI tablet (130 mg), human subject): ~200 µM
